Results reported in patent publication US8815872B2, “Macrocyclics pyrimidines as aurora kinase inhibitors” (Merck Patent GmbH, priority 2008, dated 2014).

What was measured:
BRSK2 = target: T1, BRSK2 (Homo sapiens, UniProt Q8IWQ3); assay: Other kinases, inhibition at 1 μM (Table 3); assay type: biochemical
T1 construct: purchased Caliper Life Sciences
Experimental: (§1) The Aurora and other kinase assays described here were performed on two Caliper Life Sciences systems, the LC3000 and the Desktop Profiler. These provide data on enzyme activity via measurement of the relative amounts of phosphorylated or unphosphorylated fluorescently labelled substrate peptide at the end of an enzymatic reaction. These different states of peptide are resolved by applying a potential difference across the sample. The presence of a charged phosphate group on the product (as opposed to the substrate) causes a different peptide mobility between the two peptides. This is visualized by excitation of a fluorescent label on the substrate and product peptides and represented as peaks within the analysis software.
(§2) The Desktop Profiler utilizes the same principal as the LC 3000 for calculating percentage conversion of a substrate to product. Caliper Life Sciences provided proprietary flash frozen pre-made 384 well plates containing selected kinases. Each column in the 384 well plate contained a particular selected kinase. A second plate, the ‘substrate plate’ contained a mix of fluorescently labeled peptide substrate and ATP. These were arranged in columns so that transfer for substrate plate to enzyme plate provided the correct enzyme with the correct substrate/ATP concentration.
(§3) Compounds were added to a thawed enzyme plate in the desired format, in single concentrations. Reactions were initiated by transfer of the ubstrate/ATP mix from the substrate plate. The enzyme plate was incubated for 90 mins at 25 °C. The reaction was stopped by addition of […] of Stop Buffer (100 mM HEPES pH 7.5, 0.015% Brij-35, 10 mM EDTA (Sigma, E7889)).
(§4) Plates were read in a manner identical to that of the LC3000, and the ratio between substrate and product peaks provided the activity of the enzyme in that well. This was best represented by a plate heat map which colors each well by percent inhibition as compared to positive and negative controls (no inhibitors and no ATP respectively).

CAMKI = target: T2, CAMKI (Homo sapiens, UniProt Q14012); assay: Other kinases, inhibition at 1 μM (Table 3); assay type: biochemical
T2 construct: purchased Caliper Life Sciences
Experimental: as §1, §2, §3, §4

CAMKKb = target: T3, CAMKKb (Homo sapiens, UniProt Q96RR4); assay: Other kinases, inhibition at 1 μM (Table 3); assay type: biochemical
T3 construct: purchased Caliper Life Sciences
Experimental: as §1, §2, §3, §4

DYRK1-alpha = target: T4, DYRK1-alpha (Homo sapiens, UniProt Q13627); assay: Other kinases, inhibition at 1 μM (Table 3); assay type: biochemical
T4 construct: purchased Caliper Life Sciences
Experimental: as §1, §2, §3, §4

EF2K = target: T5, EF2K (Homo sapiens, UniProt O00418); assay: Other kinases, inhibition at 1 μM (Table 3); assay type: biochemical
T5 construct: purchased Caliper Life Sciences
Experimental: as §1, §2, §3, §4

EphA2 = target: T6, EphA2 (Homo sapiens, UniProt P29317); assay: Other kinases, inhibition at 1 μM (Table 3); assay type: biochemical
T6 construct: purchased Caliper Life Sciences
T6 sequence (P29317 24-976, species assumed): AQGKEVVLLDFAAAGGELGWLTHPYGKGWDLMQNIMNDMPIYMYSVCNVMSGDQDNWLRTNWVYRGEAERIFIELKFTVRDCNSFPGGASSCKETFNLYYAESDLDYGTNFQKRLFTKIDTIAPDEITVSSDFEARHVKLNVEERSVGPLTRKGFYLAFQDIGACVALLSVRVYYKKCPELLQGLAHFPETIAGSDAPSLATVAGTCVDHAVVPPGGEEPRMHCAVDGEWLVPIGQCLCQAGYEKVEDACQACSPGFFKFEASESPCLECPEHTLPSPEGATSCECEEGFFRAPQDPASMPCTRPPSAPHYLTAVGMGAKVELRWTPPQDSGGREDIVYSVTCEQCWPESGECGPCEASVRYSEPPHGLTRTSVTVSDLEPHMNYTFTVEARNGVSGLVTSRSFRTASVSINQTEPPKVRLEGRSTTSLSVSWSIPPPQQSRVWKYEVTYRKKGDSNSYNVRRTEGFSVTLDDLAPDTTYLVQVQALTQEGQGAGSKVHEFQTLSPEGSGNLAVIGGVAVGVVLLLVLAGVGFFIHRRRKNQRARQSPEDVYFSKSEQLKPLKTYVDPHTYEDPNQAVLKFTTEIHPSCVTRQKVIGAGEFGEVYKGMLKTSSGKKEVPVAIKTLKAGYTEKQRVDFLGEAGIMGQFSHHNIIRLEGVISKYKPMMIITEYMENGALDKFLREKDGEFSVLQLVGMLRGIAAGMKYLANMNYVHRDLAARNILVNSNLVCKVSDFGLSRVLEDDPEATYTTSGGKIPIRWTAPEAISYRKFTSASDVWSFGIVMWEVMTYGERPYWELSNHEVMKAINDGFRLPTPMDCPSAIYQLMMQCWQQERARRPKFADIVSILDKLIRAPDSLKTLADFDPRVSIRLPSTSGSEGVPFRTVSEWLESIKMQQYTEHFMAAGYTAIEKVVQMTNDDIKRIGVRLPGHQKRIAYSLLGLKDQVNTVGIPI
Experimental: as §1, §2, §3, §4

FGFR1 = target: T7, FGFR1 (Homo sapiens, UniProt P11362); assay: Other kinases, inhibition at 1 μM (Table 3); assay type: biochemical
T7 construct: purchased Caliper Life Sciences
T7 sequence (P11362 22-822, species assumed): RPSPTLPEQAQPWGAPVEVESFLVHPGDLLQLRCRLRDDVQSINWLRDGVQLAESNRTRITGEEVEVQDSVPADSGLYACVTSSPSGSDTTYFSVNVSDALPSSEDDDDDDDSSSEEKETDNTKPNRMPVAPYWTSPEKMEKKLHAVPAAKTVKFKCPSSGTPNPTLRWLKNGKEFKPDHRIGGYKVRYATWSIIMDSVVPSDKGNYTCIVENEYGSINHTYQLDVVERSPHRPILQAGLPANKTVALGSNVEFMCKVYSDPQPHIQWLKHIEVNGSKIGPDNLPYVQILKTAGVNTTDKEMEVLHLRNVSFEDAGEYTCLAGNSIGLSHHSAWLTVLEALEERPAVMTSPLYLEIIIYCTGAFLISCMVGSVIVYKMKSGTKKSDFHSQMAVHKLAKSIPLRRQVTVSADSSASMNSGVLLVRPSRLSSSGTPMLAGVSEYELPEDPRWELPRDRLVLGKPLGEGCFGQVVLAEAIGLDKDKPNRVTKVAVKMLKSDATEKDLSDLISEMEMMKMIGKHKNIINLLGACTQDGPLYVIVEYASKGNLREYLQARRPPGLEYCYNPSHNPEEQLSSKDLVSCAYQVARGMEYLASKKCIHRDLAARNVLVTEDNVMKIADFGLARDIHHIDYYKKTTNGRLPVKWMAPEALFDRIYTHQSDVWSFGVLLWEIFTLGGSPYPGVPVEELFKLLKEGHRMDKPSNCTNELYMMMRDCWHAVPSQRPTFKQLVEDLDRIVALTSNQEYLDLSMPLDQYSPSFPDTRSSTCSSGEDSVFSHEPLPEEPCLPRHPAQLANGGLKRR
Experimental: as §1, §2, §3, §4

HIPK2 = target: T8, HIPK2 (Homo sapiens, UniProt Q9H2X6); assay: Other kinases, inhibition at 1 μM (Table 3); assay type: biochemical
T8 construct: purchased Caliper Life Sciences
Experimental: as §1, §2, §3, §4

IRR = target: T9, IRR (Homo sapiens, UniProt P14616); assay: Other kinases, inhibition at 1 μM (Table 3); assay type: biochemical
T9 construct: purchased Caliper Life Sciences
Experimental: as §1, §2, §3, §4

JNK1-alpha-1 = target: T10, JNK1-alpha-1 (Homo sapiens, UniProt P45983); assay: Other kinases, inhibition at 1 μM (Table 3); assay type: biochemical
T10 construct: purchased Caliper Life Sciences
Experimental: as §1, §2, §3, §4

MAPK2 = target: T11, MAPK2 (Homo sapiens, UniProt P28482); assay: Other kinases, inhibition at 1 μM (Table 3); assay type: biochemical
T11 construct: purchased Caliper Life Sciences
T11 sequence (P28482 whole entry): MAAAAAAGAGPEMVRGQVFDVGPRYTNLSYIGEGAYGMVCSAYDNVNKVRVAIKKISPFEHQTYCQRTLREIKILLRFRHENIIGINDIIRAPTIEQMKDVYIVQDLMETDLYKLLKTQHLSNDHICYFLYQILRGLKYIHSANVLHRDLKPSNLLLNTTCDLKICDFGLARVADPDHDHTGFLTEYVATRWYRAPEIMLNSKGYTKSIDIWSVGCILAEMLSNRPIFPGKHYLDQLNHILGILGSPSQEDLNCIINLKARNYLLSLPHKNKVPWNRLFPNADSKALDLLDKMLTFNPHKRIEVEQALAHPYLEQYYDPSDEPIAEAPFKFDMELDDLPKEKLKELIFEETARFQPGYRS
Experimental: as §1, §2, §3, §4

MAPKAP-K1-beta = target: T12, MAPKAP-K1-beta (Homo sapiens, UniProt P51812); assay: Other kinases, inhibition at 1 μM (Table 3); assay type: biochemical
T12 construct: purchased Caliper Life Sciences
Experimental: as §1, §2, §3, §4

MAPKAP-K2 = target: T13, MAPKAP-K2 (Homo sapiens, UniProt P49137); assay: Other kinases, inhibition at 1 μM (Table 3); assay type: biochemical
T13 construct: purchased Caliper Life Sciences
Experimental: as §1, §2, §3, §4

MNK-1 = target: T14, MNK-1 (Homo sapiens, UniProt Q9BUB5); assay: Other kinases, inhibition at 1 μM (Table 3); assay type: biochemical
T14 construct: purchased Caliper Life Sciences
T14 sequence (Q9BUB5 whole entry, species assumed): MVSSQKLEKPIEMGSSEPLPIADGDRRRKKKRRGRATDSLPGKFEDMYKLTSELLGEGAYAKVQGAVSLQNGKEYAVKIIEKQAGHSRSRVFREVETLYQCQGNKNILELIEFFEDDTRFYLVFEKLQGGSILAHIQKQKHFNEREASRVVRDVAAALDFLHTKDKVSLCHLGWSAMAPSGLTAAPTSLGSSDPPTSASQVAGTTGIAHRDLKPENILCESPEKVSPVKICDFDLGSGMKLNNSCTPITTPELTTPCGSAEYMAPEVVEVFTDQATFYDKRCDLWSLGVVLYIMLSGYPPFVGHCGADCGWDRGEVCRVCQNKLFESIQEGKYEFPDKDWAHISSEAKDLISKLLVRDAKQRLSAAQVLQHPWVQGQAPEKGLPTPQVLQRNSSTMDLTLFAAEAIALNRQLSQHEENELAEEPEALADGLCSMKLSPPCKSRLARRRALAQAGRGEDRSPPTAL
Experimental: as §1, §2, §3, §4

MNK-2-alpha = target: T15, MNK-2-alpha (Homo sapiens, UniProt Q9HBH9); assay: Other kinases, inhibition at 1 μM (Table 3); assay type: biochemical
T15 construct: purchased Caliper Life Sciences
Experimental: as §1, §2, §3, §4

MST4 = target: T16, MST4 (Homo sapiens, UniProt Q9P289); assay: Other kinases, inhibition at 1 μM (Table 3); assay type: biochemical
T16 construct: purchased Caliper Life Sciences
T16 sequence (Q9P289 whole entry, species assumed): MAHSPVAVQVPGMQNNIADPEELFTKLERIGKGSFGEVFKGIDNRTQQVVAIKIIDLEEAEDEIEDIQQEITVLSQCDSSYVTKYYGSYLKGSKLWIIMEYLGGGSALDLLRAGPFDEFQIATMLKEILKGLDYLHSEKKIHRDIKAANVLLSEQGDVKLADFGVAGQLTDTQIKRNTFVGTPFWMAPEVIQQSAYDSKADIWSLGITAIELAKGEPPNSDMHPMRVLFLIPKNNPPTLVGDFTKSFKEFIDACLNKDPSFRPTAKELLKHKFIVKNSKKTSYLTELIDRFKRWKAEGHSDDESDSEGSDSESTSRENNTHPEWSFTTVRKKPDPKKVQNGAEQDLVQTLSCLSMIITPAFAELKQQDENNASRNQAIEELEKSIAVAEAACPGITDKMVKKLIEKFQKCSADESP
Experimental: as §1, §2, §3, §4

PAK4 = target: T17, PAK4 (Homo sapiens, UniProt O96013); assay: Other kinases, inhibition at 1 μM (Table 3); assay type: biochemical
T17 construct: purchased Caliper Life Sciences
Experimental: as §1, §2, §3, §4

PAK5 = target: T18, PAK5 (Homo sapiens, UniProt Q9P286); assay: Other kinases, inhibition at 1 μM (Table 3); assay type: biochemical
T18 construct: purchased Caliper Life Sciences
Experimental: as §1, §2, §3, §4

PAK6 = target: T19, PAK6 (Homo sapiens, UniProt Q9NQU5); assay: Other kinases, inhibition at 1 μM (Table 3); assay type: biochemical
T19 construct: purchased Caliper Life Sciences
T19 sequence (Q9NQU5 whole entry, species assumed): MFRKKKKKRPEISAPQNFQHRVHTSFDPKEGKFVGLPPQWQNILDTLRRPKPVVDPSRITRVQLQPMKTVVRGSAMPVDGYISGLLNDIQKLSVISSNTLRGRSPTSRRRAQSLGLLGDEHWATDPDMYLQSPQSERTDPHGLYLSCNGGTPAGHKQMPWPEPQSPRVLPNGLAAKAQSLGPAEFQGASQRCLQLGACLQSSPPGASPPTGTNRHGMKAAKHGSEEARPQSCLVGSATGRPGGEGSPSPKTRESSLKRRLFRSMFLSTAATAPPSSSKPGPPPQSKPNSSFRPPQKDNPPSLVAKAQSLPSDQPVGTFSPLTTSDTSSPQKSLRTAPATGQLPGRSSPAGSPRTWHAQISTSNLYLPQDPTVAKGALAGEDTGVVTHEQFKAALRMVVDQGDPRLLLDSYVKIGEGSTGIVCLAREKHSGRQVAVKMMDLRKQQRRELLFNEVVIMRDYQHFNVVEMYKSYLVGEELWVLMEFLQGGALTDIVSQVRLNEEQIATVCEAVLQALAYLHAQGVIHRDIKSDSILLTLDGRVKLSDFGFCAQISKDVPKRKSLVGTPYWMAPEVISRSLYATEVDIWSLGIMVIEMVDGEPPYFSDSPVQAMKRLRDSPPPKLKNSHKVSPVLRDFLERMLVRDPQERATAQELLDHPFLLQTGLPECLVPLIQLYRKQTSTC
Experimental: as §1, §2, §3, §4

PKA = target: T20, PKA (Homo sapiens, UniProt P17612); assay: Other kinases, inhibition at 1 μM (Table 3); assay type: biochemical
T20 construct: purchased Caliper Life Sciences
Experimental: as §1, §2, §3, §4

PKB-beta = target: T21, PKB-beta (Homo sapiens, UniProt P31751); assay: Other kinases, inhibition at 1 μM (Table 3); assay type: biochemical
T21 construct: purchased Caliper Life Sciences
T21 sequence (P31751 whole entry, species assumed): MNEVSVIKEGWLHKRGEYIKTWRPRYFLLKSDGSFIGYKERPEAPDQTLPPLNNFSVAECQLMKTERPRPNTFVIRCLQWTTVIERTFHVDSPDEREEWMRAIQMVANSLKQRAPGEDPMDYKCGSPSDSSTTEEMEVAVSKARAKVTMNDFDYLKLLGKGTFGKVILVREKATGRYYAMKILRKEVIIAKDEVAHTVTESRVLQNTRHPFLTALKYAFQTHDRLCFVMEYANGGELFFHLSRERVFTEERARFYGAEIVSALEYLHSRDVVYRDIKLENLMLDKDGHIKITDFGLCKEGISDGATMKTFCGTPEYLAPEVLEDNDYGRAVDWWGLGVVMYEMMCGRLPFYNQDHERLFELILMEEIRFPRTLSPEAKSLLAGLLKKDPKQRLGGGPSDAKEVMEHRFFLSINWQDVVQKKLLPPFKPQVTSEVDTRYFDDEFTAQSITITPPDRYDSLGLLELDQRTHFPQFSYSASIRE
Experimental: as §1, §2, §3, §4

PKC-zeta = target: T22, PKC-zeta (Homo sapiens, UniProt Q05513); assay: Other kinases, inhibition at 1 μM (Table 3); assay type: biochemical
T22 construct: purchased Caliper Life Sciences
Experimental: as §1, §2, §3, §4

SRPK1 = target: T23, SRPK1 (Homo sapiens, UniProt Q96SB4); assay: Other kinases, inhibition at 1 μM (Table 3); assay type: biochemical
T23 construct: purchased Caliper Life Sciences
T23 sequence (Q96SB4 whole entry, species assumed): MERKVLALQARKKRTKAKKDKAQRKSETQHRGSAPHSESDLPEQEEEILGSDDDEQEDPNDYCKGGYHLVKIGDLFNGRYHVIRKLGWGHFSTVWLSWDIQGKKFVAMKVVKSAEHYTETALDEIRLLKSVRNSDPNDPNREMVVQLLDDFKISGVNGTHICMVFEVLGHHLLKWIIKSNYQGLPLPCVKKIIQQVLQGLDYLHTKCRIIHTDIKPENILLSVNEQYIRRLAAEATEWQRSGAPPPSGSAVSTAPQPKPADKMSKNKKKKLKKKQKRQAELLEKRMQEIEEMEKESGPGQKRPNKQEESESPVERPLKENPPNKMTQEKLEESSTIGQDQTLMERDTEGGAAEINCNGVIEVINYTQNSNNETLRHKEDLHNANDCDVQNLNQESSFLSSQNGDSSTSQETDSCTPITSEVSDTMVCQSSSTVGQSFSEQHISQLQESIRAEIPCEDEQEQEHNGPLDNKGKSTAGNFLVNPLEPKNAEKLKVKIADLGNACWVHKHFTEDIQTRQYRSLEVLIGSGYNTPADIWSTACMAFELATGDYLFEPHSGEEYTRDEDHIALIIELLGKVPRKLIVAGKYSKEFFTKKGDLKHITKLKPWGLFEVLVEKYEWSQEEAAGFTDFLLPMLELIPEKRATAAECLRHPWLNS
Experimental: as §1, §2, §3, §4

VEGFR = assay: Other kinases, inhibition at 1 μM (Table 3); assay type: biochemical
Experimental: as §1, §2, §3, §4

IRAK4(h) = target: T24, IRAK4(h) (Homo sapiens, UniProt Q9NWZ3); assay: Other kinases, single-concentration inhibition (Table 3); assay type: biochemical; conditions: 1 μM
T24 construct: purchased Caliper Life Sciences
T24 sequence (Q9NWZ3 1-460): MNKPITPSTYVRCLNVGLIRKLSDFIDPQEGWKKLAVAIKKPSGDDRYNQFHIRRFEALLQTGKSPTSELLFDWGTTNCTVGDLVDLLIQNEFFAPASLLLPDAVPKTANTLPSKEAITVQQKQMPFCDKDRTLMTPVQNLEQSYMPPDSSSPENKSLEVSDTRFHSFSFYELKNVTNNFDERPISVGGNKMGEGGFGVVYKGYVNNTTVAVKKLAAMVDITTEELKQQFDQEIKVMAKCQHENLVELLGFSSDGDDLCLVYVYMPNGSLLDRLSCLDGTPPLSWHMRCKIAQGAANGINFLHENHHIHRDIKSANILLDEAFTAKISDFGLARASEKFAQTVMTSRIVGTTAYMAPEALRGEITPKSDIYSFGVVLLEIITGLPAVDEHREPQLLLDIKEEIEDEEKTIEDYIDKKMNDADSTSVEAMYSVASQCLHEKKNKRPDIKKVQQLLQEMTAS
Method in brief: (§5)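 Caliper mobility-shift kinase assay with labelled peptide and ATP at kinase-specific levels. 90 min, 25 °C, single compound dose.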

Pyk2(h) = target: T25, Pyk2(h) (Homo sapiens, UniProt Q14289); assay: as above; assay type: biochemical; conditions: 1 μM
T25 construct: purchased Caliper Life Sciences
Method in brief: as §5

ROCK-I(h) = target: T26, ROCK-I(h) (Homo sapiens, UniProt Q13464); assay: as above; assay type: biochemical; conditions: 1 μM
T26 construct: purchased Caliper Life Sciences
Method in brief: as §5

AMPK(r) = assay: as above; assay type: biochemical, rat; conditions: 1 μM
Experimental: as §1, §2, §3, §4

## NC(=O)[C@H]1[C@H]2C[C@H]3[C@H]1Nc1nc(ncc1F)Nc1cccc(c1)CSS[C@@H]3C2 [Example 10]
BRSK2
  inhibition at 1 µM: 26%
CAMKI
  % inhibition CAMKI: 73%
CAMKKb
  % inhibition CAMKKb: 73%
DYRK1-alpha
  inhibition at 1 µM: 83%
EF2K
  inhibition at 1 µM: 62%
EphA2
  inhibition at 1 µM: 25%
FGFR1
  inhibition at 1 µM: 10%
HIPK2
  inhibition at 1 µM: 23%
IRR
  inhibition at 1 µM: 72%
JNK1-alpha-1
  inhibition at 1 µM: 14%
MAPK2
  % inhibition MAPK2: 90%
MAPKAP-K1-beta
  % inhibition MAPKAP-K1-beta: 19%
MAPKAP-K2
  % inhibition MAPKAP-K2: 88%
MNK-1
  % inhibition MNK-1: 98%
MNK-2-alpha
  % inhibition MNK-2-alpha: 82%
MST4
  % inhibition MST4: 59%
PAK4
  % inhibition PAK4: 38%
PAK5
  % inhibition PAK5: 72%
PAK6
  % inhibition PAK6: 81%
PKA
  % inhibition PKA: 72%
PKB-beta
  % inhibition PKB-beta: 101%
PKC-zeta
  % inhibition PKC-zeta: 99%
SRPK1
  inhibition at 1 µM: 65%
VEGFR
  % inhibition VEGFR: 15%
IRAK4(h)
  % inhibition IRAK4(h): 3%
Pyk2(h)
  % inhibition Pyk2(h): 13%
ROCK-I(h)
  % inhibition ROCK-I(h): 96%
AMPK(r)
  % inhibition AMPK(r): 86%
